In patent publication US7294463B2, “Method of screening for compounds that modulate activity of a regulatory sequence of the β-2 subunit of a neuronal nicotinic acetylcholine receptor” (Institut Pasteur, priority 1994, dated 2007):
Like-named read-outs stand apart in the source and are kept apart here.

How the values were obtained:
[1] = system: nuclear extracts from neuroblastomas or fibroblasts; test: Gel shift assay, competition against 32P labelled E-D probe; type: binding; details: excess of unlabelled competitor
Excerpt: FIG. 7: Gel shift experiment. Autoradiogram of the mobility shift experiment. The probe used was a ^32P labelled double stranded E-D oligonucleotide. This oligonucleotide carries only the E-Box/Dyad element, whereas the oligonucleotide S-E carries the Sp1 binding site as well as the E-Box/Dyad element. The competitor oligonucleotides were used in 10- and 100-fold molar excess, except for S-E that was used only in 100-fold molar excess.
Oligonucleotides were labeled either with Y[^32P]ATP and T4 polynucleotide kinase, or with ∝[^32P]CTP and Klenow enzyme as in Current Protocols in Molecular Biology. Nuclear extracts were prepared from ˜10^7 cells as described (Bessis et al., 1993). For binding, […] of labeled oligonucleotide was mixed with 0.5 μg of protein extract in 10 mM Hepes pH 8, 10% glycerol], 0.1 mM EDTA, 0.1 M NaCl, 2 mM DTT, 0.1 mg/ml BSA, 4 mM MgCl2, 4 mM spermidine, 1 mM PMSF, 1 μg polydldC in 20 μl. The reaction was incubated for 10 minutes on ice. The DNA-protein complexes were then analyzed on a 7% polyacrylamide gel.
To further understand the role of the E-Box in the regulation of the promoter, we investigated the protein complexes able to interact with this sequence. Gel shift assays were performed using the 33 bp sequence (nt-135 to -103, oligonucleotide E-D) as a probe. […]

[2] = system: neurons in the MHb; test: Patch clamp recording of nicotine evoked currents, medial habenula (MHb); type: cell-based, mouse; details: for Agonist potency rank order: wild type
Experimental: (§1) METHODS, Coronal slices were obtained from the thalamus of 8-12 day old mice using a Dosaka slicer in ice cold ACSF medium (125 mM NaCl/26 mM NaHCO3/25 mM Glucose/1.25 mM NaH2PO4/2.5 mM KCl 2.5/2 mM CaCl2/1 mM MgCl2 pH 7.3). Slices were maintained in the same medium for 1-8 hours. Cells in slices were visualized through a Zeiss microscope. Whole cell recordings were obtained with 2-4 MOhm hard-glass pipettes containing 150 mM CsCl/10 mM EGTA/10 mM HEPES/4 mM di-sodium ATP/4 mM MgCl2 pH adjusted to 7.3 with KOH. Five to ten sec. pulses of drug were applied rapidly to the cell through a […] pipette above the slice, fed by gravity with a solution containing 150 mM NaCl/10 mM Hepes/2.5 mM KCl/2 mM CaCl2/1 mM MgCl2. Recordings were made in the presence of CNQX (5 μM) and of the GABAA antagonist SR-95531 (10 μM). Currents were recorded with an Axopatch ID (Axon Instrument) patch amplifier, digitized on a Compaq PC and further analyzed with the PClamp program (Axon Instrument).

[3] = system: neurons of the anterior thalamus; type: cell-based, mouse
Experimental: as §1

[4] = system: β2−/− mice and their wildtype siblings
Experimental: METHODS, Passive avoidance test was performed as described in the text, according to Nordberg and Bergh^20 and Faiman et al^20. Nicotine (bitartrate, Sigma) was freshly dissolved in PBS. IP injection of the same volume of either nicotine or vehicle immediately followed footshock during the training trial.
Retention of an inhibitory avoidance response was assessed using the passive avoidance test, which was also chosen for its pharmacological sensitivity to nicotine administration ^19,20. This test consisted of a training trial in which the mouse was placed in a well-lighted chamber of a shuttle box, and the latency to enter the adjacent dark chamber was measured. Upon entry to the dark chamber, a mild, inescapable foot shock was delivered, and vehicle or nicotine (10 μg/kg) was injected into the mouse. Twenty-four (24) hours later, retention was assessed by measuring the latency to enter the dark chamber.

[5] = target: high affinity sites; details: read-out: KD of high affinity sites; equilibrium binding experiments; cited from earlier work
[6] = system: high affinity nAChR; details: 3H-nicotine 4 nM, brain sections of β2−/− mice
Experimental: (§2) Following incubation, sections were rinsed 2×2 min. in ice cold PBS and briefly rinsed in ice cold water. Slides were exposed for 60 days to Hyperfilm ^3H.

[7] = target: high affinity nAChR (Mus musculus, UniProt O70174+Q9ERK7); details: 3H-nicotine 4 nM, all brain areas of β2+/− mice
high affinity nAChR (Mus musculus, UniProt O70174+Q9ERK7), sequence (Q9ERK7 26-501): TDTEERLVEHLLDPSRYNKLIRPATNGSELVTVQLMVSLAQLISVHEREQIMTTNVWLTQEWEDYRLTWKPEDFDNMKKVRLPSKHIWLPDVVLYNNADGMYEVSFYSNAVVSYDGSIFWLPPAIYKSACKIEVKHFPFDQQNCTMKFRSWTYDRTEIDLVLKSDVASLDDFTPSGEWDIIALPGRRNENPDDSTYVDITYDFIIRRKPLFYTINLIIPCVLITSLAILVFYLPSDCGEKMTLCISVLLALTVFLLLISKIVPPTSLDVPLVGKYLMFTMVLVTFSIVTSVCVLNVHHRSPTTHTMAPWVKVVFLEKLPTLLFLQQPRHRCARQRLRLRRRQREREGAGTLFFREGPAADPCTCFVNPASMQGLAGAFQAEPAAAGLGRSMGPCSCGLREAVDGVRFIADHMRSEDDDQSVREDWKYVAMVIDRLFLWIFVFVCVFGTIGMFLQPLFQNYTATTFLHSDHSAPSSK
high affinity nAChR (Mus musculus, UniProt O70174+Q9ERK7), sequence (O70174 31-629): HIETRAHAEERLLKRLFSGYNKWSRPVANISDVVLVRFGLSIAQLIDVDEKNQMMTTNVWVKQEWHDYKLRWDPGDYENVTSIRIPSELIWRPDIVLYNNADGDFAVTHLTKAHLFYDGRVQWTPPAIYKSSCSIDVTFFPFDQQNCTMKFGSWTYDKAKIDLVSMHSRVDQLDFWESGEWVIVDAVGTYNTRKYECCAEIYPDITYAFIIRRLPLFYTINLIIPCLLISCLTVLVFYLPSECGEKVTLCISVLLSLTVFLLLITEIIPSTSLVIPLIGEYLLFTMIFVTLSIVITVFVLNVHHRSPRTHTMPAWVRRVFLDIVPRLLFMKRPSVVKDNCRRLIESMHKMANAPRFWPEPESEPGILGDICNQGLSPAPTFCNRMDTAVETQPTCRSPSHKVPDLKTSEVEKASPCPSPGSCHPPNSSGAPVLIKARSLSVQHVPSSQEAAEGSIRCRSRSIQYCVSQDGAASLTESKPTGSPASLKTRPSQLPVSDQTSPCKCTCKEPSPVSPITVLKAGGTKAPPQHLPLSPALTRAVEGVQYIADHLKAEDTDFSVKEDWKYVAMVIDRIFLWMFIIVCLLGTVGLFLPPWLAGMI
Experimental: as §2

## 5′-CCTCCCCTAGTAGTTCCTCAGGTGTTCCCTAGA [Mut.E]
[1]
  Competition for complexes formed with labelled E-D probe: no competition

## 5′-TCCTCCCCTAGTAGTTCCACTTGTGTTCCCTAG [E-D]
[1]
  Competition for complexes formed with labelled E-D probe: fully displaced

## C[N+]1(C)CCN(c2ccccc2)CC1 [DMPP]
[2]; MHb
  Agonist potency rank order: cytisine=nicotine>DMPP
[3]; wild type, anterior thalamus
  Agonist order of the response: nicotine>DMPP>cytisine

## O=c1cccc2n1C[C@@H]1CNC[C@H]2C1 [cytisine]
[2]; MHb
  Agonist potency rank order: cytisine=nicotine>DMPP
[3]
  Agonist order of the response: nicotine>DMPP>cytisine

## CO[C@H]1CC=C2CCN3CCC4=C(CC(=O)OC4)[C@]23C1 [dihydro-β-erythroidine]
[3]; 1 μM antagonist, 10 μM nicotine, wild type
  Effect on the nicotine evoked inward current: blocked

## CN1CCCC1c1cccnc1 (stereo not shown) [nicotine]
[2]; mutant mice
  Response of cells in the MHb to nicotine: maintained
[2]; wild type mice, MHb
  Average inward current: 505+/−132 pA
[2]; MHb
  Agonist potency rank order: cytisine=nicotine>DMPP
[4]; nicotine 10 μg/kg IP post-training, retention after 24 hours, wild type mice, p<0.01
  Upward shift of retention latency curve: approximately 80 sec
[4]; nicotine 10 μg/kg, mutant (β2−/−) mice
  Effect of nicotine administration on retention: completely ineffective
[5]
  Kd: ~0.01 µM
[3]; 10 μM nicotine, wild type animals
  Average inward current: 155+/−73 pA
[3]; anterior thalamic neurons
  Dose required for a reproducible response: 1 µM
[3]; wild type, anterior thalamus
  Agonist order of the response: nicotine>DMPP>cytisine
[3]; β2−/− mice, 100% of neurons tested
  Response of anterior thalamic neurons to nicotine: completely abolished
[6]
  Nicotine binding in situ: completely abolished
[7]
  Reduction of nicotine binding in situ: approximately 50%
